Where two headings read alike, the source gives them in different places.
Legend:
[1] = system: serum TNFα elevation in mice treated with lipopolysaccharide (LPS); test: Murine LPS-Stimulated Serum TNF Inhibition; format: in vivo; conditions: Mus musculus, 1.5 h, dose 30 mpk, read-out: % inh. (dose): % inhibition of murine TNF production in mice following an LPS challenge
Description: Murine LPS—Stimulated Serum TNF Inhibition Protocol
The potency of compounds of the invention as inhibitors of serum TNFα elevation in mice treated with lipopolysaccharide (LPS) was determined as follows; a) for subcutaneous (s.c.) administration, test compound was dissolved in DMSO and added to a mixture of 0.9% sodium chloride solution and 30% Trappsol HPB-20 (Cyclodextrin Technology Development Inc., Gainesville, Fla. USA) for a final DMSO concentration of 1%. The dosing solution was sonicated briefly and 0.2 mL was injected subcutaneously 10 min prior to LPS injection; b) for per oral (p.o.) administration, test compounds were formulated in 0.2 mL of PBS and 0.1% Tween 80 and given orally via gavage 10 min prior to LPS administration.
C3/hen female mice were injected intraperitoneally with 200 μg/kg LPS (Escherichia coil, Serotype 0111:B4, Sigma Chemical Co, St. Louis, Mo.) in PBS and sacrificed 90 min later by CO2 asphyxiation. Blood was immediately taken from the caudal vena cava and plasma prepared and frozen at −80° C. Plasma concentrations of TNF were measured by ELISA (Genzyme Co., Cambridge Mass.).

p38 kinase = target: T1, p38 kinase (Homo sapiens, UniProt Q16539); test: p38 Kinase Assay; format: biochemical
T1 construct: GST (N); made in house; host or cells: E. coli
T1 sequence (Q16539 whole entry): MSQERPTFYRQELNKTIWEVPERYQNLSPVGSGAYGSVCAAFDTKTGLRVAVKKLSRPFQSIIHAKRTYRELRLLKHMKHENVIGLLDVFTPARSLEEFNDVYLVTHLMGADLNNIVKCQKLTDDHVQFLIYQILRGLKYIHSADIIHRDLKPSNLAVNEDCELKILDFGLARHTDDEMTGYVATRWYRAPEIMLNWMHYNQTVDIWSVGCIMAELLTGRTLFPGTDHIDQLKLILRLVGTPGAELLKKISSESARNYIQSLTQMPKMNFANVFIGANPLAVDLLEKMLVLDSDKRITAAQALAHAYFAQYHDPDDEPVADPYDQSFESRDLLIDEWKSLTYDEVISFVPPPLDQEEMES
Description: The peptide substrate used in the p38 assay was biotin-IPTSPITTTYFFFRRR-amide. The p38 and MEK6 proteins were purified to homogeneity from E. coli expression systems. The fusion proteins were tagged at the N-terminus with Glutathione-S-Transferase (GST). The maximum activation was achieved by incubating 20 uL of a reaction mixture of 30 nM MEK6 protein and 120 nM p38 protein in the presence of 1.5 uM peptide and 10 mM Mg (CH3CO2)2 in 100 mM HEPES7 pH 7.5, added to 15 uL of a mixture of 1.5 uM ATP with 0.08 uCi [g-^33P]ATP, with or without 15 uL of inhibitor in 6% DMSO. The controls were reactions in the presence (negative controls) or absence (positive controls) of 50 mM EDTA. Reactions were allowed to proceed for 60 min at room temperature and quenched with addition of 50 uL of 250 mM EDTA and mixed with 150 uL of Streptavidin SPA beads (Amersham) to 0.5 mg/reaction. The Dynatech Microfluor white U-bottom plates were sealed and the beads were allowed to settle overnight. The plates were counted in a Packard TopCount for 60 seconds. IC50 values were obtained by fitting raw data to % I=100*(1−(I−C2)/(C1−C2)), where I was […], C1 was positive control, and C2 was negative control.

[2] = target: T2, JNK3 kinase (Jnk-3alpha-2) (Homo sapiens, UniProt P53779); test: JNK3 Kinase Assay; format: biochemical; conditions: Table 8; read-out: JNK3 kinase (inhibition of JNK3 kinase, IC50)
T2 construct: Jnk-3alpha-2 (as a truncated construct, residues 39 to 224) was expressed in E. coli as a GST fusion protein; Following purification the GST portion was removed by thrombin cleavage; fused on or other part: An N-terminal GST tag was used for expression and removed by thrombin cleavage before the assay
T2 sequence (P53779 39-402 limits assumed): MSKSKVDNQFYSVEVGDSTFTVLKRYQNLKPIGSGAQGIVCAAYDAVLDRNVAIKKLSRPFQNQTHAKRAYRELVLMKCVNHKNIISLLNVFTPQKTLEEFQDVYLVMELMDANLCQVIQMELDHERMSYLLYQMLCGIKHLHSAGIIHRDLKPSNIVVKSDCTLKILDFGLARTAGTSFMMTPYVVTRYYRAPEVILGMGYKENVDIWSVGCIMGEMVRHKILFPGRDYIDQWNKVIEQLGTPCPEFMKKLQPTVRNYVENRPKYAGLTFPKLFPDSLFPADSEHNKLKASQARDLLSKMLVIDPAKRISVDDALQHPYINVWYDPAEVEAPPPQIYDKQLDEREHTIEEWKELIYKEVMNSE
Description: JNK3 Kinase Assay Jnk-3alpha-2 (as a truncated construct, residues 39 to 224) was expressed in E. coli as a GST fusion protein. Following purification the GST portion was removed by thrombin cleavage. The enzyme was stored at −80° C. Substrate c-Jun was expressed as a GST fusion protein including a signal peptide (biotinylation site) in E. coli. Following purification the substrate was biotinylated on a specific lysine in the signal peptide using biotin ligase. Prior to assay Jnk-3 was pre-activated by incubation with MgATP. The enzyme (10 nM) was screened in 40 mM HEPES (pH 7.4), 150 mM NaCl, 20 mM glycerophosphate, 1 mM DTT, 0.2 mM vanadate, 200 nM biotin-c-Jun, 5 mM MgCl2 and 10 uM ATP. Inhibitors were added over a conc range of from 0 to 10 uM in DMSO (fc 3%). The reaction was stopped by the addition of 25 mM EDTA. Phospho-c-Jun was detected using homogeneous time resolved fluorescence (HTRF) with a Eu-labelled antiphosphoserine (Serine 73) and streptavidin APC.

[3] = system: TNF release from human peripheral blood mononuclear cells (PBMNC); test: Cell Based Assay for Cytokines Production in PBMNC (TNF release after LPS); conditions: PBMC, read-out: TNF/PBMNC (inhibition of TNF release from human PBMNC following stimulation with LPS, IC50)
Description: Cell Based Assay for Cytokines Production in PBMNC
Human peripheral blood mononuclear cells were isolated from heparinized blood by LSM (Organon Teknika) from volunteer donors. Purified human peripheral blood mononuclear cells were then suspended at a concentration of 2×10^6 cells/ml in RPMI 1640 medium supplemented with 10% heat-inactivated FBS and 1% antibiotics. Aliquots of 100 μl (2×10^5 cells) were added to 96-well microliter plates. Test compounds at […] dose ranges (final-DMSO concentration in culture medium was 0.1%) were then added to the cells for 10–15 minutes before the addition of lipopolysaccharide (1 ng/ml). After incubation at 37° C. in a 5% CO2 incubator for 18–20 h, cell free supernatants were collected by centrifugation at 800 g. The supernatant was then assayed for the amount of TNFα and IL-1β by using Quantikine immunoassay kits developed by R&D Systems (Minneapolis, Minn.).

[4] = Cell Based Efficacy (MTT Assay), cytotoxicity toward HFF; conditions: human, HFF cells (human foreskin fibroblasts)
Description: Cell Based Efficacy (MTT Assay)
The potency of compounds of the invention are tested for their ability to inhibit cell proliferation and cell viability. The metabolic conversion of 3-(4,5-dimethylthiazol-2-yl)-2,5-diphenyltetrazolium bromide (MTT, Sigma #M2128) to a reduced form was a commonly used measure of cellular viability. Following was the procedure:
Cells are maintained in 75 cm^2 tissue culture flasks until ready for use. The cells are grown and plated for the assay in Dulbecco's modified Eagle's media containing 10% fetal bovine serum. For example, the following cell lines can be used: a) human foreskin fibroblasts (HFF), b) HT29 (human colon carcinoma cell line), c) MDA-MB468 (human breast carcinoma cell line), d) RKO (human colon adenocarcinoma cell line), e) SW620 (human colon carcinoma cell line), f) A549 (human lung carcinoma cell line), and g) MIA PACA (human pancreatic carcinoma cell line). Cells are maintained at 37° C. in 10% CO2, 90% humidified air. Cells are plated in 96-well tissue culture plates at the densities listed below (Table 6). 100 μL of cell suspension was added to each well of the 96-well plate except the top row of the plate which contains no cells and serves as a reference for the spectrophotometer.
Cells are incubated overnight in Dulbecco's modified Eagle's media containing 10% fetal bovine serum at 37° C. in 10% CO2, 90% humidified air prior to dosing. Cells are dosed in 10 sequential 3-fold dilutions starting at 30 μM depending upon the solubility of the compound. Compounds with solubilities of less than 30 μM are dosed at the highest soluble concentration. Stock solutions of compounds are made in 100% dimethyl sulfoxide (DMSO). Stock solutions are diluted in Dulbecco's modified Eagle's media containing 100 ug/mL gentamicin and 0.3 to 0.6% DMSO at the twice the highest concentration to be placed on the cells. If compounds have been dissolved in DMSO the final concentration of DMSO on the cells was kept below 0.3%. 3-fold serial dilutions are performed on each compound to prepare 10 concentrations of the compound for dosing. 100 μL of diluted compound was added to the 100 μL of media currently on the dish. For each concentration of compound, 2–4 replicate wells are prepared.
Cells are returned to incubator and allowed to proliferate in the presence of compound for 72 h before addition of MTT. MTT was prepared in phosphate buffered saline (Irvine Scientific #9240) at a concentration of 2 mg/mL. 50 μL per well of MTT solution was added to the 200 μL of media to yield a final concentration of 0.4 mg/mL and plates are returned to the incubator for 4 h. After 4 h incubation the media, compound and MTT mixture was aspirated from the plates and 100 μL of 100% DMSO was added to each well in addition to 25 uL of Sorenson's Buffer (0.1M glycine, 0.1M NaCl, pH 10.5). Quantitation of metabolic reduction of MTT in each plate was performed by reading optical density at 570 nm wavelength on a Molecular Devices UV max microplate reader. Growth inhibition curves and 50% inhibitory concentrations are determined using Microsoft Excel.

[5] = Table 8, compounds wherein Z is N, read-out: p38 kinase (inhibition of p38 kinase, IC50)
[6] = Table 7, compounds wherein Z is CH, read-out: P38 kinase (inhibition of p38 kinase, IC50)

| SMILES | inhibition in vivo at 30 mg/kg ([1]; Table 8, LPS challenge) | IC50 (p38 kinase; [5]) | IC50 [2] | IC50 ([3]; Table 8, LPS stimulation) | IC50 at 72 h ([4]; Table 7, HFF cell line) | IC50 (p38 kinase; [6]) | IC50 ([3]; Table 7, LPS stimulation) | inhibition in vivo at 30 mg/kg ([1]; Table 7, LPS challenge) | IC50 at 72 h ([4]; Table 8, HFF cell line) |
| --- | --- | --- | --- | --- | --- | --- | --- | --- | --- |
| Fc1ccc(-c2nn3cc(C(F)(F)F)ccc3c2-c2ccnc(NC3CC3)n2)cc1 [Example 68, N-Cyclopropyl-4-[2-(4-fluorophenyl)-6-trifluoromethylpyrazolo[1,5-a]pyridin-3-yl]-2-pyrimidinamine] | 24% | < 500 nM | < 500 nM | < 500 nM |  |  |  |  |  |
| Fc1ccc(-c2nn3ccccc3c2-c2ccnc(NCc3cccnc3)c2)cc1 [Example 37, 4-[2-(4-Fluorophenyl)pyrazolo[1,5-a]pyridin-3-yl]-N-(3-pyridinylmethyl)-2-pyridinamine] |  |  |  |  | 5000 to 50000 nM | < 500 nM | < 500 nM |  |  |
| COc1ccn2nc(-c3ccc(F)cc3)c(-c3ccncc3)c2c1 [Example 5, 2-(4-Fluorophenyl)-5-methoxy-3-(4-pyridinyl)pyrazolo[1,5-a]pyridine] |  |  |  |  |  | 500 to 5000 nM | 500 to 5000 nM | 11% |  |
| Fc1ccc(-c2nn3ccccc3c2-c2ccnc(NCc3ccccn3)n2)cc1 [Example 82, 4-[2-(4-Fluorophenyl)pyrazolo[1,5-a]pyridin-3-yl]-N-(2-pyridinylmethyl)-2-pyrimidinamine] | 87% | < 500 nM |  | < 500 nM |  |  |  |  |  |
| Fc1ccc(-c2nn3ccccc3c2-c2ccncn2)cc1 [Example 56, 2-(4-Fluorophenyl)-3-(4-pyrimidinyl)-pyrazolo[1,5-a]pyridine] | 67% | 500 to 5000 nM |  | 500 to 5000 nM |  |  |  |  | > 50000 nM |
| Nc1ncccc1C(=O)OCc1ccn2nc(-c3ccc(F)cc3)c(-c3ccncc3)c2c1 [Example 16, [2-(4-Fluorophenyl)-3-(4-pyridinyl)pyrazolo[1,5-a]pyridin-5-yl]methyl 2-aminonicotinate] |  |  |  |  | > 50000 nM | < 500 nM | < 500 nM |  |  |
| Nc1nccc(-c2c(-c3ccc(F)cc3)nn3ccccc23)n1 [Example 64, 4-[2-(4-Fluorophenyl)pyrazolo[1,5-a]pyridin-3-yl]-2-pyrimidinamine] | 62% | < 500 nM |  | < 500 nM |  |  |  |  |  |
| CC(C)Nc1nccc(-c2c(-c3ccc(F)cc3)nn3cc(C(F)(F)F)ccc23)n1 [Example 69, 4-[2-(4-Fluorophenyl)-6-trifluoromethylpyrazolo[1,5-a]pyridin-3-yl]-N-(2-propyl)-2-pyrimidinamine] | 45% | < 500 nM |  | < 500 nM |  |  |  |  |  |
| Fc1ccc(-c2nn3ccccc3c2-c2ccnc(NCc3ccc(Cl)cc3)c2)cc1 [Example 31, N-(4-Chlorobenzyl)-4-[2-(4-fluorophenyl)pyrazolo[1,5-a]pyridin-3-yl]-2-pyridinamine] |  |  |  |  |  |  | < 500 nM | 42% |  |
| CCCCNc1nccc(-c2c(-c3ccc(F)cc3)nn3ccccc23)n1 [Example 60, N-Butyl-4-[2-(4-fluorophenyl)pyrazolo[1,5-a]pyridin-3-yl]-2-pyrimidin-amine] | 88% | < 500 nM |  | < 500 nM |  |  |  |  |  |
| NC(=O)c1ccc2c(-c3ccnc(NC4CC4)n3)c(-c3ccc(F)cc3)nn2c1 [Example 75, 2-(4-Fluorophenyl)-3-(4-(2-cyclopropylamino)pyrimidinyl)-6-pyrazolo-[1,5-a]pyridinylcarboxamide] | 90% |  | < 500 nM | < 500 nM |  |  |  |  |  |
| N#Cc1ccc2c(-c3ccnc(NC4CC4)n3)c(-c3ccc(F)cc3)nn2c1 [Example 73, N-Cyclopropyl-4-[6-cyano-2-(4-fluorophenyl)pyrazolo[1,5-a]pyridin-3-yl]-2-pyrimidinamine] | 52% | < 500 nM | < 500 nM | < 500 nM |  |  |  |  |  |
| CSc1nccc(-c2c(-c3ccc(F)cc3)nn3ccccc23)n1 [Example 57, 2-(4-Fluorophenyl)-3-(4-(2-methylthio)pyrimidinyl)pyrazolo[1,5-a]-pyridine] | 56% | < 500 nM |  | < 500 nM |  |  |  |  |  |

Reference: patent US7166597B2, “Fused pyrazole derivatives being protein kinase inhibitors” (Glaxo Group Limited, priority 2000, dated 2007)
